# Measurements as given in patent US9199970B2, “4-[5-(pyridin-4-yl)-1H-1,2,4-triazol-3-yl]pyridine-2-carbonitrile crystalline polymorph and production method therefor” (FUJIYAKUHIN CO., LTD., priority 2012, dated 2015).
# Assay: Solubility test of various crystal forms (water solubility)
# Format: physicochemical
# Conditions: concentration of saturated solution determined through measuring absorbance (FIG. 8)
# Experimental: Solubility Test of Various Crystal Forms
# The water solubilities of type I crystals, type II crystals, and the hydrate of compound (1) were determined by calculating each sample concentration of its saturated solution determined through measuring absorbance.
row,water solubility,SMILES
1,1.9 µg/mL,"N#Cc1cc(-c2n[nH]c(-c3ccncc3)n2)ccn1 [hydrate, 4-[5-(pyridin-4-yl)-1H-1,2,4-triazol-3-yl]pyridine-2-carbonitrile]"
2,6.2 µg/mL,"N#Cc1cc(-c2n[nH]c(-c3ccncc3)n2)ccn1 [type I crystals, 4-[5-(pyridin-4-yl)-1H-1,2,4-triazol-3-yl]pyridine-2-carbonitrile]"
3,4.2 µg/mL,"N#Cc1cc(-c2n[nH]c(-c3ccncc3)n2)ccn1 [type II crystals, 4-[5-(pyridin-4-yl)-1H-1,2,4-triazol-3-yl]pyridine-2-carbonitrile]"
